From patent US20180148418A1, “AMIDO-SUBSTITUTED CYCLOHEXANE DERIVATIVES” (Bayer Pharma Aktiengesellschaft, priority 2015, published 2018)

Tests used:
TNKS2 = target: T1, TNKS2 (Homo sapiens, UniProt Q9H2K2); assay: TNKS2 Assay B (auto-parsylation, [3H]-NAD+ SPA); type: biochemical; conditions: 6 nM TNKS2, auto-parsylation, over night at room temperature
T1 construct: purchased BPS Bioscience, San Diego, USA 80572 (TNKS2 Histone Ribosylation Assay Kit)
T1 sequence (Q9H2K2 1-1166): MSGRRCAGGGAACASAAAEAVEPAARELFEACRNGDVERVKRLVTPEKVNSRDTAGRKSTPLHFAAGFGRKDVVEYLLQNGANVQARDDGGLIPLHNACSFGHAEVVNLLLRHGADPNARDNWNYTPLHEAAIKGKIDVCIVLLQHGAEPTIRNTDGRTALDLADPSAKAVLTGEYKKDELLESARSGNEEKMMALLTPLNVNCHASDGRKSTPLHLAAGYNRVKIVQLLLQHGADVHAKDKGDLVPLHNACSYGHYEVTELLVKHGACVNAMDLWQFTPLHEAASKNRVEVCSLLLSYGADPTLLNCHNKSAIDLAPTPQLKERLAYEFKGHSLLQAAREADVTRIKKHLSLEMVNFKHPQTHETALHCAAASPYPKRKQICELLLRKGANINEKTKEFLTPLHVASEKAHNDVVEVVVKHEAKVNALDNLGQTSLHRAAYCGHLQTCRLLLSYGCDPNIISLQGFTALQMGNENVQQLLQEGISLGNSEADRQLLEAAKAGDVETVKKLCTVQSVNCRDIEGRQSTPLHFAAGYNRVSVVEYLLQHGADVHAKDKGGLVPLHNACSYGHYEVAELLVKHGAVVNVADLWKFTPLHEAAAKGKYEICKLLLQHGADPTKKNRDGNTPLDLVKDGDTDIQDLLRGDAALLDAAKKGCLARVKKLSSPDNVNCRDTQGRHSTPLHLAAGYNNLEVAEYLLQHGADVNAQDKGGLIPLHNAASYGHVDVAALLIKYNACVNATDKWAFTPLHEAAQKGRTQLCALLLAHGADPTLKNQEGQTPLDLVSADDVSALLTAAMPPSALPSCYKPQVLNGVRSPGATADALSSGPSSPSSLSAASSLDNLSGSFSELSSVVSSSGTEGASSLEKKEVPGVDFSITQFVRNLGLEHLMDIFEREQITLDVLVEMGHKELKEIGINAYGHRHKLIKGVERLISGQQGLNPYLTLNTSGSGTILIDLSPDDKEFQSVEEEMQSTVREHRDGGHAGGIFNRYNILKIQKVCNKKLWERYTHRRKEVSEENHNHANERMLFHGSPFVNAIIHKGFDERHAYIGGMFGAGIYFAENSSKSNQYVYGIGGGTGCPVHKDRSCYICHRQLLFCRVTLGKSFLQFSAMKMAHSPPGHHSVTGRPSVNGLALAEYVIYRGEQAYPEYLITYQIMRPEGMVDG

[1] = tested on: wildtype Wnt signaling cascade; assay: HEK293 TOP assay (Super TopFlash luciferase reporter, Wnt-3a stimulated); type: cell-based; conditions: Homo sapiens, HEK293, 16 h, HEK293 TOP reporter cells, Wnt3a at EC50, 16 hours
Method in brief: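 HEK293 cells stably carrying Super TopFlash (TOP) run in parallel with FOP cells, 10000/well plated 24 h ahead, stimulated with recombinant human Wnt-3a. Compounds tested 50 μM to 15 nM in 3.16-fold steps in CAFTY buffer pH 7.4 with 2 mM Ca^2+ and 0.01% BSA; luciferase read-out.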

**Q.** For O=C(N[C@H]1CC[C@H](C(=O)Nc2ccc(F)cc2Cl)CC1)c1cnc2ccc(Cl)nn12 [Example 47, 6-chloro-N-{trans-4-[(2-chloro-4-fluorophenyl)carbamoyl]cyclohexyl}imidazo[1,2-b]pyridazine-3-carboxamide], which IC50 (TNKS2) is on record?
**A.** Its IC50 is 420 nM.

**Q.** What about the IC50 [1] of the same compound?
**A.** Its IC50 is 390 nM.

**Q.** What does the source list for O=C(N[C@H]1CC[C@H](C(=O)Nc2ccc(F)cc2Cl)CC1)c1cnc2ccc(N3CCOCC3)nn12 [Example 48, N-{trans-4-[(2-chloro-4-fluorophenyl)carbamoyl]cyclohexyl}-6-(morpholin-4-yl)imidazo[1,2-b]pyridazine-3-carboxamide]?
**A.** IC50 (TNKS2): 310 nM; IC50 [1]: 410 nM

**Q.** For CN1CCN(c2ccc3ncc(C(=O)N[C@H]4CC[C@H](C(=O)Nc5ccc(F)cc5Cl)CC4)n3n2)CC1 [Example 49, N-{trans-4-[(2-chloro-4-fluorophenyl)carbamoyl]cyclohexyl}-6-(4-methylpiperazin-1-yl)imidazo[1,2-b]pyridazine-3-carboxamide], which IC50 (TNKS2) is on record?
**A.** The IC50 was 130 nM.

**Q.** And the IC50 [1]?
**A.** The IC50 was 680 nM.

**Q.** With COc1ccc2ncc(C(=O)N[C@H]3CC[C@H](C(=O)Nc4ccc(F)cc4Cl)CC3)n2n1 [Example 50, N-{trans-4-[(2-chloro-4-fluorophenyl)carbamoyl]cyclohexyl}-6-methoxyimidazo[1,2-b]pyridazine-3-carboxamide] as the compound, how does the IC50 (TNKS2) read?
**A.** The IC50 was 170 nM.

**Q.** What about the IC50 [1] of the same compound?
**A.** The IC50 was 350 nM.

**Q.** Which results are given for O=C(N[C@H]1CC[C@H](C(=O)Nc2ccc(F)cc2Cl)CC1)c1cnc2ccc(N3CCCC3)nn12 [Example 51, N-{trans-4-[(2-chloro-4-fluorophenyl)carbamoyl]cyclohexyl}-6-(pyrrolidin-1-yl)imidazo[1,2-b]pyridazine-3-carboxamide]?
**A.** IC50 (TNKS2): 31 nM; IC50 [1]: 290 nM

**Q.** How did the IC50 (TNKS2) turn out when CN(C)c1ccc2ncc(C(=O)N[C@H]3CC[C@H](C(=O)Nc4ccc(F)cc4Cl)CC3)n2n1 [Example 52, N-{trans-4-[(2-chloro-4-fluorophenyl)carbamoyl]cyclohexyl}-6-(dimethylamino)imidazo[1,2-b]pyridazine-3-carboxamide] was run?
**A.** Its IC50 is 11 nM.

**Q.** What about the IC50 [1] of the same compound?
**A.** The IC50 was 150 nM.

**Q.** Which IC50 (TNKS2) does the source give for CNc1ccc2ncc(C(=O)N[C@H]3CC[C@H](C(=O)Nc4ccc(F)cc4Cl)CC3)n2n1 [Example 53, N-{trans-4-[(2-chloro-4-fluorophenyl)carbamoyl]cyclohexyl}-6-(methylamino)imidazo[1,2-b]pyridazine-3-carboxamide] here?
**A.** The IC50 was 47 nM.

**Q.** And the IC50 [1]?
**A.** Its IC50 is 400 nM.

**Q.** Which results are given for Cc1c(C(C)O)cnc2c(C(=O)N[C@H]3CC[C@H](C(=O)Nc4ccc(F)cc4Cl)CC3)cnn12 (stereo partly drawn) [Example 58, N-{trans-4-[(2-chloro-4-fluorophenyl)carbamoyl]cyclohexyl}-6-(1-hydroxyethyl)-7-methylpyrazolo[1,5-a]pyrimidine-3-carboxamide]?
**A.** IC50 (TNKS2): 710 nM; IC50 [1]: 1100 nM

**Q.** How did the IC50 (TNKS2) turn out when Nc1nn2cccnc2c1C(=O)N[C@H]1CC[C@H](C(=O)Nc2ccc(F)cc2Cl)CC1 [Example 59, 2-amino-N-{trans-4-[(2-chloro-4-fluorophenyl)carbamoyl]cyclohexyl}pyrazolo[1,5-a]pyrimidine-3-carboxamide] was run?
**A.** The IC50 was 500 nM.

**Q.** And the IC50 [1]?
**A.** Its IC50 is 1300 nM.

**Q.** Cc1cc(C(C)(C)C)n2ncc(C(=O)N[C@H]3CC[C@H](C(=O)Nc4ccc(F)cc4Cl)CC3)c2n1 [Example 60, 7-tert-butyl-N-{trans-4-[(2-chloro-4-fluorophenyl)carbamoyl]cyclohexyl}-5-methylpyrazolo[1,5-a]pyrimidine-3-carboxamide] was tested. Which IC50 (TNKS2) did it give?
**A.** Its IC50 is 2200 nM.

**Q.** And the IC50 [1]?
**A.** Its IC50 is 620 nM.

**Q.** Which results are given for Cc1cnc2c(C(=O)N[C@H]3CC[C@H](C(=O)Nc4ccc(F)cc4Cl)CC3)cnn2c1 [Example 61, N-{trans-4-[(2-chloro-4-fluorophenyl)carbamoyl]cyclohexyl}-6-methylpyrazolo[1,5-a]pyrimidine-3-carboxamide]?
**A.** IC50 (TNKS2): 34 nM; IC50 [1]: 21 nM

**Q.** Cc1cc(C2CC2)nc2c(C(=O)N[C@H]3CC[C@H](C(=O)Nc4ccc(F)cc4Cl)CC3)cnn12 [Example 62, N-{trans-4-[(2-chloro-4-fluorophenyl)carbamoyl]cyclohexyl}-5-cyclopropyl-7-methylpyrazolo[1,5-a]pyrimidine-3-carboxamide] was tested. Which IC50 (TNKS2) did it give?
**A.** The IC50 was 2000 nM.

**Q.** And the IC50 [1]?
**A.** Its IC50 is 12000 nM.
